According to PMC7253382, “Trypanocidal and leishmanicidal activity of six limonoids” (Journal of Natural Medicines, 2020):
≈ marks a conversion by molar mass, not a printed value. Where two headings read alike, the source gives them in different places.

Legend:
[1] = tested on: promastigotes of Leishmania major (strain MHOM/IL/81/Friedlin); test: In vitro toxicity assay (resazurin), L. major promastigotes; assay type: cell-based; conditions: 72 h; for GI50: read-out: L. major GI50; for MIC: read-out: L. major MIC
Method: (§1) Bloodstream forms of Trypanosoma brucei (clone 427-221a) and human myeloid leukaemia HL-60 cells were maintained in Baltz medium supplemented with 16.7% heat-inactivated bovine serum in a humidified atmosphere containing 5% CO2 at 37 °C. Promastigotes of Leishmania major (strain MHOM/IL/81/Friedlin [16]) were cultured in Schneider’s insect medium supplemented with 10% heat-inactivated foetal bovine serum in a humidified atmosphere containing 5% CO2 at 27 °C.
(§2) Toxicity assays were carried out as previously described with some modifications. In brief, cells were seeded in 96-well plates in a final volume of 200 μL of appropriate medium containing various concentrations of test compounds (tenfold dilution from 100 µM to 1 nM) and 1% DMSO. Wells just containing medium and 1% DMSO served as controls. The initial cell densities were 1 × 10^4/mL for T. brucei bloodstream forms, 2.5 × 10^5/mL for L. major promastigotes, and 5 × 10^4/mL for HL-60 cells. After 24 h incubation, 20 µL of a 0.5 mM resazurin solution prepared in PBS was added and the cells were incubated for a further 48 h. Thereafter, the absorbance of wells was read on a BioTek ELx808 microplate reader using a test wavelength of 570 nm and a reference wavelength of 630 nm. The 50% growth inhibition (GI50) value, i.e., the concentration of a compound necessary to reduce the growth rate of cells by 50% compared to the control, was determined by linear interpolation. The minimum inhibitory concentration (MIC) values, i.e. the concentration of a compound at which all trypanosomes and human cells were killed, was determined microscopically.

[2] = In vitro toxicity assay (resazurin), HL-60 cells; assay type: cell-based, human; conditions: human
Method: as §1, §2

[3] = tested on: human myeloid leukaemia HL-60 cells; test: In vitro toxicity assay (resazurin), HL-60 cells; assay type: cell-based; conditions: 72 h; for GI50: 50% growth inhibition, resazurin
Method: as §1, §2

[4] = tested on: intracellular L. major amastigotes in J774 macrophages; test: Intra-macrophages amastigote assay; assay type: cell-based, Leishmania major; conditions: for Killing of intracellular amastigotes: 72 h
Method: The intra-macrophages amastigote assay was performed as previously described with some modification. In brief, 1 mL of J774 cells (7 × 10^4) suspended in RPMI supplemented with 10% foetal bovine serum were pipetted into wells of a 24 well plate containing sterile glass coverslips. Subsequently, cells were incubated overnight at 37 °C and 5% CO2 in a humidified incubator. The next day, metacyclic L. major promastigotes (MOI 20:1) were added and the plates incubated for 24 h at 34 °C and 5% CO2 in a humidified incubator. After 24 h incubation, cells were washed 4 times with PBS to remove parasites that had not invaded any macrophage. Then, cells were incubated with compound 1 at the following concentrations: 10, 2.5, 1.25, 0.625 and 0.1 µM. Amphotericin B (0.1 µM) was used as a positive control and no drug treatment as a negative control. After 72 h of drug incubation, cells were gently washed 4 times with PBS and fixed with 4% paraformaldehyde for 30 min. Thereafter, cells were washed once with water and stained with Giemsa for 40 min. Cells on coverslips were then destained using the acetone-xylene protocol as follows: first, pure acetone; second, pure acetone; third, acetone/xylene 9:1; forth, acetone/xylene 7:3; fifth, acetone/xylene 3:7; sixth, pure xylene. Finally, coverslips were mounted on slides with Entellan new mounting medium. Infection index (parasites/cell) were determined by counting approximately 300 cells per coverslips using an Olympus BX50 microscope with a 100 × N.A. 1.35 oil immersion objective.
Fig. 2 Effect of compound 1 on intracellular L. major amastigotes. After infection of J774 macrophages with metacyclic promastigotes of L. major, cells were treated with compound 1 or amphotericin B (AM) or with DMSO alone (DMSO) 24 h post infection. After 72 h incubation, coverslips with cells were washed with PBS, fixed with paraformaldehyde and stained with Giemsa. Subsequently, cells were destained and coverslips mounted, and the infection index determined. Mean values ± SD of three independent experiments run in triplicate are shown

[5] = tested on: bloodstream forms of Trypanosoma brucei (clone 427-221a); test: In vitro toxicity assay (resazurin), T. brucei bloodstream forms; assay type: cell-based; conditions: for GI50: read-out: T. brucei GI50; for MIC: read-out: T. brucei MIC
Method: as §1, §2

[6] = tested on: immortalised human embryonic kidney cell line HEK239T; set-up: method as in PMID 28917086; conditions: cited from earlier work
[7] = tested on: bloodstream forms of T. brucei rhodesiense; set-up: method as in PMID 17253841; conditions: cited from earlier work
[8] = tested on: Axenic grown amastigotes of L. donovani; set-up: method as in PMID 17253841; conditions: cited from earlier work
[9] = Leishmania major, promastigotes, 50% growth inhibition, resazurin
[10] = Leishmania major, promastigotes, determined microscopically
[11] = Trypanosoma brucei, 72 h, bloodstream forms, 50% growth inhibition, resazurin, 72 h
[12] = Trypanosoma brucei, bloodstream forms, concentration at which all cells were killed, determined microscopically, 72 h
[13] = HL-60 cells (human myeloid leukaemia), cytotoxicity, 50% growth inhibition, resazurin, 72 h, read-out: HL-60 cells GI50
[14] = cytotoxicity, determined microscopically
[15] = cytotoxicity, 50% growth inhibition, resazurin, 72 h, read-out: HL-60 cells GI50

C[C@@H]1[C@H](O)[C@@H](C)/C=C/C=C/C=C/C=C/C=C/C=C/C=C/[C@H](O[C@@H]2O[C@H](C)[C@@H](O)[C@H](N)[C@@H]2O)C[C@@H]2O[C@](O)(C[C@@H](O)C[C@@H](O)[C@H](O)CC[C@@H](O)C[C@@H](O)CC(=O)O[C@H]1C)C[C@H](O)[C@H]2C(=O)O [Amphotericin B, reference compound]
GI50 [1, 9]: 0.036 ± 0.001 µM | MIC [1, 10]: 0.1 µM (≈ 0.0924 µg/mL) | GI50 at 72 h ([2]; HL-60 cells GI50): 50.7 ± 9.3 µM | HL-60 cells MIC ([3]; human): > 100 µM | Killing of intracellular amastigotes ([4]; at 0.1 μM, positive control): completely destroy

CC1(C)C(=O)C=C[C@]2(C)C3C(=O)C[C@@]4(C)[C@H](c5ccoc5)OC(=O)[C@H]5O[C@]54[C@]3(C)CC[C@@H]12 (stereo partly shown) [Compound 1, kotschyienone A]
GI50 [5, 11]: 2 to 3 µM | GI50 ([5]; Trypanosoma brucei, bloodstream forms, same value as 2.48 μM in mass units): 1.09 µg/mL | MIC [5, 12]: 10 µM (≈ 4.39 µg/mL) | GI50 ([5]; bloodstream forms, 50% growth inhibition, resazurin, 72 h): 2.48 ± 0.12 µM | GI50 [1, 9]: 2 to 3 µM | MIC [1, 10]: 10 µM (≈ 4.39 µg/mL) | GI50 ([1]; promastigotes, 50% growth inhibition, resazurin): 2.86 ± 0.89 µM | GI50 at 72 h [2, 13]: 31.5 to 46.2 µM | GI50 ([3]; cytotoxicity): 31.5 ± 3.7 µM | HL-60 cells MIC [3, 14]: 100 µM | GI50 ([4]; Leishmania major, J774, same value as 1.51 μM in mass units): 0.66 µg/mL (≈ 1.51 µM) | Killing of intracellular amastigotes ([4]; at 10 μM): killed completely | ED50 (50% effective dose), reduction of parasite burden of infected macrophages ([4]; intracellular amastigotes in J774 macrophages, 72 h drug incubation, infection index): 1.51 µM | cytotoxicity for HEK239T [6]: > 200 µg/mL

CC1(C)C(=O)C=C[C@]2(C)C3C(=O)C[C@@]4(C)[C@H](c5ccoc5)OC(=O)[C@H]5O[C@]54[C@]3(C)[C@H](O)C[C@@H]12 (stereo partly shown) [Compound 2, kotschyienone B]
GI50 [5, 11]: 14.2 ± 2.9 µM | MIC [5, 12]: 100 µM (≈ 45.5 µg/mL) | GI50 [1, 9]: 14.9 ± 5.9 µM | MIC [1, 10]: 100 µM (≈ 45.5 µg/mL) | GI50 at 72 h [2, 13]: > 100 µM | HL-60 cells MIC [3, 14]: > 100 µM

CC1(C)C(=O)C=C[C@]2(C)C3CC[C@@]4(C)[C@H](c5ccoc5)OC(=O)[C@H]5O[C@]54[C@]3(C)[C@H](O)C[C@@H]12 (stereo partly shown) [Compound 3, 7-deacetylgedunin]
GI50 ([5]; Trypanosoma brucei, 72 h): 14.5 ± 3.2 µM | MIC ([5]; Trypanosoma brucei, 72 h): 100 µM (≈ 44.1 µg/mL) | GI50 ([1]; Leishmania major): 11.6 ± 1.6 µM | MIC ([1]; Leishmania major): 100 µM (≈ 44.1 µg/mL) | GI50 at 72 h [2, 15]: 31.5 to 46.2 µM | GI50 ([3]; cytotoxicity): 46.2 ± 6.7 µM | HL-60 cells MIC [3, 14]: 100 µM | GI50 [7]: 3.4 µM | GI50 [8]: ~1 µM

CC1(C)C(=O)C=C[C@]2(C)C3CC[C@@]4(C)[C@H](c5ccoc5)OC(=O)[C@H]5O[C@]54[C@]3(C)C(=O)C[C@@H]12 (stereo partly shown) [Compound 4, 7-deacetyl-7-oxogedunin]
GI50 ([5]; Trypanosoma brucei, 72 h): 3.18 ± 0.48 µM | MIC ([5]; Trypanosoma brucei, 72 h): > 100 µM | GI50 ([1]; Leishmania major): 7.63 ± 2.78 µM | MIC ([1]; Leishmania major): > 100 µM | GI50 at 72 h [2, 15]: > 100 µM | HL-60 cells MIC [3, 14]: > 100 µM | GI50 [7]: 3.4 µM | GI50 [8]: ~1 µM

C=C1[C@@H]([C@@]2(C)C=CC(=O)C(C)(C)[C@@H]2CC(=O)OC)CC[C@@]2(C)[C@H](c3ccoc3)OC(=O)[C@H]3O[C@]132 [Compound 5, andirobin]
GI50 [5, 11]: 11.5 ± 6.3 µM | MIC [5, 12]: > 100 µM | GI50 [1, 9]: > 100 µM | MIC [1, 10]: > 100 µM | GI50 at 72 h [2, 13]: > 100 µM | HL-60 cells MIC [3, 14]: > 100 µM

C=C1[C@@H]2CC[C@@]3(C)[C@H](c4ccoc4)OC(=O)C[C@]13O[C@H]1CC(=O)C(C)(C)[C@H](CC(=O)OC)[C@]12C [Compound 6, methyl angolensate]
GI50 ([5]; Trypanosoma brucei, 72 h): 6.04 ± 2.25 µM | MIC ([5]; Trypanosoma brucei, 72 h): > 100 µM | GI50 ([1]; Leishmania major): > 100 µM | MIC ([1]; Leishmania major): > 100 µM | GI50 at 72 h [2, 15]: > 100 µM | HL-60 cells MIC [3, 14]: > 100 µM

Cc1ccc(C(=O)Nc2ccc(S(=O)(=O)O)c3cc(S(=O)(=O)O)cc(S(=O)(=O)O)c23)cc1NC(=O)c1cccc(NC(=O)Nc2cccc(C(=O)Nc3cc(C(=O)Nc4ccc(S(=O)(=O)O)c5cc(S(=O)(=O)O)cc(S(=O)(=O)O)c45)ccc3C)c2)c1 [Suramin, reference compound]
GI50 [5, 11]: 0.042 ± 0.004 µM | MIC [5, 12]: 1 µM (≈ 1.3 µg/mL) | GI50 at 72 h ([2]; HL-60 cells GI50): > 100 µM | HL-60 cells MIC ([3]; human): > 100 µM
